Laboratory results taken from US10030016B2 (Sunesis Pharmaceuticals, Inc., priority 2009, dated 2018).
Structures can show the parent of a compound that is named as a salt. Where two headings read alike, the source gives them in different places.

Key:
[1] = system: phospho-akt (Thr308) in PC-3 cells; experiment: Inhibition of phospho-akt (Thr308) in PC-3 cells, MSD phospho-akt 308 ELISA kit; format: cell-based; details: Homo sapiens, 2 hours, no serum, read-out: EC50
Summary of the method: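 Electrochemiluminescent MSD ELISA of Thr308-phosphorylated Akt after a 2 h serum-free compound exposure of PC-3 cells (15,000/well, plated overnight). Controls: DMSO (high), 5 μM wortmannin (low). Lysate binding overnight at 4 °C; detection antibody 1 h at room temperature.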

PDK1 = PDK1 (Homo sapiens (Human), UniProt O15530); experiment: PDK1 kinase assay (coupled PDK1/AKT/FAM-crosstide assay, IMAP fluorescence polarization); format: biochemical
PDK1, sequence (O15530 51-359): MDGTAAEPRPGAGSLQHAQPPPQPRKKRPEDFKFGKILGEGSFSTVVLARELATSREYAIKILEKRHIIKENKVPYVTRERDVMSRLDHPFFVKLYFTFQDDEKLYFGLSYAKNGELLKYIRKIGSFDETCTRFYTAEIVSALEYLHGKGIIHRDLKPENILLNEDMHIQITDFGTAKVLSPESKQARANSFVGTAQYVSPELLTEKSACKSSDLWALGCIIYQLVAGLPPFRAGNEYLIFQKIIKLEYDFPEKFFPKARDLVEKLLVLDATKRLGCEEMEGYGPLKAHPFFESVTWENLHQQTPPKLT
Summary of the method: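 GST-tagged PDK1 (aa 51-359, 0.75 nM) was coupled to unphosphorylated GST-AKT2 140-467-PIFtide (10 nM) and 100 nM FAM-crosstide at 40 μM ATP, in Tris pH 7.2 buffer, for 30 min at 25 °C. Crosstide phosphorylation was read by IMAP fluorescence polarization (ΔmP) and fitted with a 4-parameter curve.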

[2] = inhibition of P308 Akt in PC-3 cells, MSD
[3] = inhibition of phospo-PDK1 in vitro
[4] = inhibition of P308 Akt in PC-3 cells using MSD
[5] = PC-3, 2 h, inhibition of P308 Akt in PC-3 cells using MSD

| SMILES | EC50 [1, 2] [nM] | IC50 (PDK1; [3]) [nM] | EC50 [1, 4] [nM] | IC50 (PDK1; inhibition of PDK1 in vitro) [nM] | EC50 [1, 5] [nM] |
| --- | --- | --- | --- | --- | --- |
| Nc1ncnc2ccc(-c3ccc(CNc4ncc(NC(=O)C(F)(F)F)cc4C(=O)NCc4ccc(F)c(F)c4)s3)cc12 [Example 8.5.6, 2-({[5-(4-aminoquinazolin-6-yl)thiophen-2-yl]methyl}amino)-N-(3,4-difluorobenzyl)-5-[(trifluoroacetyl)amino] pyridine-3-carboxamide] | 1000 to 10000 | 100 to 1000 |  |  |  |
| C[C@@H](Nc1ncc(C(F)(F)F)cc1C(=O)Nc1ccc(F)cc1)c1ccc(-c2c[nH]c3ncnc(N)c23)cc1 [Example 433, 2-{(R)-1-[4-(4-Amino-7H-pyrrolo[2,3-d]pyrimidin-5-yl)-phenyl]-ethylamino}-N-(4-fluoro-phenyl)-5-trifluoromethyl-nicotinamide] |  |  | 1000 to 10000 | < 100 |  |
| CC(C)Oc1cc(CNc2ncccc2C(=O)NCc2ccc(F)c(F)c2)cc(-c2ccc3ncnc(N)c3c2)c1 [Example 5.6] | 1000 to 10000 | < 100 |  |  |  |
| C[C@H](NC(=O)c1nc(C#N)cnc1N[C@H](CO)c1ccc(-c2cnc3[nH]nc(N)c3c2)cc1)c1ccc(F)c(F)c1 [Example 353, 3-((S)-1-(4-(3-amino-1H-pyrazolo[3,4-b]pyridin-5-yl)phenyl)-2-hydroxy-ethylamino)-6-cyano-N-((S)-1-(3,4-difluorophenyl)ethyl)pyrazine-2-carboxamide] |  |  | < 1000 | < 100 |  |
| CN1CCN(Cc2ccc(NC(=O)c3cc(C(F)(F)F)cnc3NCc3ccc(-c4cnc5[nH]nc(N)c5c4)cc3)cc2)CC1 [Example 285, 2-(4-(3-amino-1H-pyrazolo [3,4-b]pyridin-5-yl)benzylamino)-N-(4-((4-methylpiperazin-1-yl)methyl)phenyl)-5-(trifluoromethyl)nicotinamide] |  |  | > 10000 | 1000 to 5000 |  |
| C[C@H](NC(=O)c1cc(C(F)(F)F)cnc1NCc1ccc(-c2cc3c(N)ncnc3cn2)s1)c1ccc(F)c(F)c1 [Example 8.12.8, 2-({[5-(4-aminopyrido [3,4-d]pyrimidin-6-yl)thiophen-2-yl]methyl}amino)-N-[(1S)-1-(3,4-difluorophenyl)ethyl]-5-(trifluoromethyl) pyridine-3-carboxamide] | 1000 to 10000 | 100 to 1000 |  |  |  |
| N#Cc1cnc(NCc2ccc(-c3ccc(N)nc3)cc2)c(C(=O)NCc2cncc(F)c2)c1 [Example 310, 2-(4-(6-aminopyridin-3-yl)benzylamino)-5-cyano-N-((5-fluoropyridin-3-yl)methyl)nicotinamide] |  |  | < 1000 | < 100 |  |
| N#Cc1cnc(NCc2ccc(-c3cnc4[nH]nc(N)c4c3)cc2)c(C(=O)NCc2cncc(F)c2)n1 [Example 26, 3-(4-(3-amino-1H-pyrazolo[3,4-b]pyridin-5-yl)benzylamino)-6-cyano-N-((5-fluoropyridin-3-yl)methyl)pyrazine-2-carboxamide] | < 1000 | < 100 |  |  |  |
| Cc1[nH]c(/C=C2\C(=O)Nc3cc(/C=C/CNc4ncccc4C(=O)NCc4ccc(F)c(F)c4)ccc32)c(C)c1C(=O)O [Example 15.6] | < 1000 | > 5000 |  |  |  |
| C[C@H](NC(=O)c1nc(C#N)cnc1NCc1ccc(-c2cnc(N)c(N3CCNCC3)n2)cc1)c1ccc(F)c(F)c1 [Example 192, 3-[4-(3′-Amino-3,4,5,6-tetrahydro-2H-[1,2′]bipyrazinyl-6′-yl)-benzylamino]-6-cyano-pyrazine-2-carboxylic acid [(S)-1-(3,4-difluoro-phenyl)-ethyl]-amide] |  |  | 1000 to 10000 | < 100 |  |
| O=C1Nc2cc(OCCNc3ncccc3C(=O)NCc3ccc(F)cc3)ccc2/C1=C/c1cnc[nH]1 [Example 23, (Z)-2-(2-(3-((1H-imidazol-5-yl)methylene)-2-oxoindolin-6-yloxy)ethylamino)-N-(4-fluorobenzyl)nicotinamide] | < 1000 | < 100 |  |  |  |
| CCCNS(=O)(=O)c1cnc(NCc2ccc(-c3ccc4ncnc(N)c4c3)s2)c(C(=O)NCc2ccc(F)c(F)c2)c1 [Example 8.6.9, 2-(((5-(4-aminoquinazolin-6-yl)thiophen-2-yl)methyl)amino)-N-(3,4-difluorobenzyl)-5-(N-propylsulfamoyl) nicotinamide] | 1000 to 10000 | 100 to 1000 |  |  |  |
| C[C@H](NC(=O)c1nccnc1NCc1ccc(-c2ccc3ncnc(N)c3c2)s1)c1cccc(F)c1 [Example 3.69, 3-({[5-(4-aminoquinazolin-6-yl)thiophen-2-yl]methyl}amino)-N-[(1S)-1-(3-fluorophenyl)ethyl] pyrazine-2-carboxamide (TFA salt)] | 1000 to 10000 | < 100 |  |  |  |
| COC(=O)c1ccc(-c2ccc(CNc3ncc(C#N)cc3C(=O)N[C@@H](C)c3ccc(F)cc3)cc2)cn1 [Example 112, (S)-methyl 5-(4-((5-cyano-3-(1-(4-fluorophenyl)ethyl-carbamoyl)pyridin-2-ylamino)methyl)phenyl)picolinate] |  |  | > 10000 | > 5000 |  |
| C[C@H](NC(=O)c1cc(C#N)cnc1NC/C=C/c1ccc2c(c1)NC(=O)/C2=C\c1cnc[nH]1)c1ccc(F)cc1 [Example 15.4, 2-((E)-3-((Z)-3-((1H-imidazol-5-yl)methylene)-2-oxoindolin-6-yl)allylamino)-5-cyano-N-((S)-1-(4-fluorophenyl)ethyl)nicotinamide] | < 1000 | < 100 |  |  |  |
| C[C@H](NC(=O)c1cc(S(C)(=O)=O)cnc1NCc1ccc(-c2ccc3ncnc(N)c3c2)s1)c1ccc(F)cc1 [Example 7.22.2, 2-({[5-(4-aminoquinazolin-6-yl)thiophen-2-yl]methyl}amino)-N-[(1S)-1-(4-fluorophenyl)ethyl]-5-(methylsulfonyl)pyridine-3-carboxamide] | < 1000 | 100 to 1000 |  |  |  |
| C[C@H](NC(=O)c1cccnc1NCc1ccc(-c2ccc3ncnc(NC4CNC4)c3c2)s1)c1ccc(F)c(F)c1 [Example 4.36, 2-({5-[4-(Azetidin-3-ylamino)-quinazolin-6-yl]-thiophen-2-ylmethyl}-amino)-N-[(S)-1-(3,4-difluoro-phenyl)-ethyl]-nicotinamide] | 1000 to 10000 | < 100 |  |  |  |
| COc1cc(-c2ccc(CNc3ncc(C#N)cc3C(=O)N[C@@H](C)c3ccc(F)cc3)cc2)cnc1N [Example 133, (S)-2-(4-(6-amino-5-methoxypyridin-3-yl)benzylamino)-5-cyano-N-(1-(4-fluorophenyl)ethyl)nicotinamide] |  |  | < 1000 | < 100 |  |
| Nc1n[nH]c2ncc(-c3ccc(CNc4ncc(C(F)(F)F)cc4C(=O)Nc4c(F)cc(F)cc4F)cc3)cc12 [Example 278, 2-(4-(3-amino-1H-pyrazolo [3,4-b]pyridin-5-yl)benzylamino)-5-(trifluoromethyl)-N-(2,4,6-trifluorophenyl)nicotinamide] |  |  | < 1000 | < 100 |  |
| Nc1ncnc2ccc(-c3csc(CNc4ncccc4C(=O)NCc4ccc(F)c(F)c4)c3)cc12 [Ex. 6.14, 2-({[4-(4-aminoquinazolin-6-yl)thiophen-2-yl]methyl}amino)-N-(3,4-difluoro-benzyl) pyridine-3-carboxamide] | 1000 to 10000 | < 100 |  |  |  |
| CCOc1ccnc(NCc2ccc(-c3ccc4ncnc(N)c4c3)s2)c1C(=O)NCc1ccc(F)c(F)c1 [Ex. 7.5, 2-({[5-(4-aminoquinazolin-6-yl)thiophen-2-yl]methyl}amino)-N-(3,4-difluorobenzyl)-4-ethoxypyridine-3-carboxamide] | > 10000 | 100 to 1000 |  |  |  |
| C[C@H](NC(=O)c1cc(C#N)cnc1NCc1ccc(-c2cnc(N)c(CCCO)n2)cc1)c1ccc(F)cc1 [Example 91, 2-{4-[5-Amino-6-(3-hydroxy-propyl)-pyrazin-2-yl]-benzyl-amino}-5-cyano-N-[(S)-1-(4-fluoro-phenyl)-ethyl]-nicotinamide] |  |  | < 1000 | < 100 |  |
| C[C@H](NC(=O)c1cc(C#N)cnc1NCc1ccc(-c2cnc(N)nc2)cc1)c1ccc(F)cc1 [Example 119, (S)-2-(4-(2-amino-pyrimidin-5-yl)benzylamino)-5-cyano-N-(1-(4-fluorophenyl)ethyl) nicotinamide] |  |  | > 10000 | < 100 |  |
| Cn1nc(-c2ccc(CNc3ncc(C(F)(F)F)cc3C(=O)NCc3ccc(F)c(F)c3)cc2)c2c(N)ncnc21 [Example 332, 2-(4-(4-amino-1-methyl-1H-pyrazolo[3,4-d]pyrimidin-3-yl)-benzylamino)-N-(3,4-difluorobenzyl)-5-(trifluoromethyl)nicotinamide] |  |  | 1000 to 10000 | < 100 |  |
| C[C@H](NC(=O)c1cccnc1NCc1ccc(-c2cn(C3CCC3)c3ncnc(N)c23)s1)c1ccc(F)cc1 [Example 345] |  |  |  | 100 to 1000 | < 1000 |
| Nc1n[nH]c2ncc(-c3ccc(CNc4ncc(C(F)(F)F)cc4C(=O)NCc4cscn4)cc3)cc12 [Example 273, 2-(4-(3-amino-1H-pyrazolo [3,4-b]pyridin-5-yl)benzylamino)-N-(thiazol-4-ylmethyl)-5-(trifluoromethyl) nicotinamide] |  |  | 1000 to 10000 | < 100 |  |
| C[C@H](NC(=O)c1cc(C#N)cnc1NCc1ccc(-c2cnc(N)c(CCCN)n2)nc1)c1ccc(F)cc1 [Example 74, 2-({6-[5-Amino-6-(3-amino-propyl)-pyrazin-2-yl]-pyridin-3-ylmethyl}-amino)-5-cyano-N-[(S)-1-(4-fluoro-phenyl)-ethyl]-nicotinamide] |  |  |  | 100 to 1000 | 1000 to 10000 |
